# Results published in article PMC11234452, “HydrogelFinder: A Foundation Model for Efficient Self‐Assembling Peptide Discovery Guided by Non‐Peptidal Small Molecules” (Advanced Science, 2024).
# Residues, ends and D or L forms follow the SMILES beside them.
# Legend:
# Assay type in all cases: physicochemical
# [1] = Hydrogelation test, inverted tube method; conditions: for pH (of hydrogelation) / Conc. (hydrogelation concentration): 37 °C overnight; for Conc. (hydrogelation concentration): pH adjusted with NaOH or HCl
# Protocol: We subsequently evaluated their gelation capability (Figure S2, Supporting Information). After purification by HPLC, the obtained compounds were dissolved in water and the pH of the solution was adjusted to trigger self‐assembly and hydrogelation.
# Observing gel behavior in an inverted test tube is a rapid and facile approach to determine whether a dissolved peptide formed a gel.
# All compounds were placed in a glass tube (diameter 10 mm) and first dissolved in D.I water, sonicated for 5 min and putted on ice for 30 min. Then added 2x PBS buffer (5.4 mM KCl, 20 mM Na2HPO4, 4 mM KH2PO4) or D.I water to reach the final concentration of 1.0 wt%. pH was adjusted with NaOH or HCl. The solutions were stored in 37 °C incubator overnight. Gelation was confirmed by the inverting method.
# [2] = TEM of hydrogel matrix, nanofiber width; conditions: uranyl formate stain, ImageJ, 30 measurements per picture
# Protocol: These nanofibers were entangled with one another, forming a 3D‐network that comprised the hydrogel matrix (Figure 4B).
# The sample was prepared by placing a drop of peptide solution on a 200‐mesh copper grid (Electron Microscopy China) and allowed to stand for 1.0 min, then blotted with filter paper. Subsequently a drop of 1.0% Uranyl Formate was placed on the grid and allowed to stand for 1–2 min, then blotted with a piece of filter paper and left to air dry. Images were taken with a JEOL JEM‐2100Plus at 80 kV accelerating voltage. By calculating the width of peptide, The image J was used to measure 30 times for 1 TEM picture, and to gather statistics with frequency.^[ [26] ^]
# [3] = Oscillatory rheology, dynamic time sweep; conditions: 37 °C, 15 mm parallel geometry, gap 0.5 mm, G′ consistently higher than G″
# Protocol: To further explore the gelation properties and self‐assembly behavior of the candidate self‐assembling molecules, we carried out a series of biophysical characterization experiments.
# All rheological experiments were performed on an Anton Parr equipped with a steel 15 mm parallel geometry tool. […] To avoid dehydration, a layer of silicon oil was applied around the edge of the sample at the start of the measurement. Dynamic strain sweep experiments were performed to ensure that the time‐sweep data was collected in the linear regime of strain. The dynamic strain sweep was performed varying the strain from 0.1 to 100% at a constant frequency (6 rad s^−1).
pH (of hydrogelation) ([1]; buffer 1X PBS),Conc. (hydrogelation concentration) ([1]; buffer 1X PBS) [wt%],"gelation outcome / gel appearance ([1]; in water, pH adjusted (2–12))",Compound,pH (of hydrogelation) ([1]; in water),Conc. (hydrogelation concentration) ([1]; in water) [wt%],nanofiber width [2],storage modulus (G′) at equilibrium [3]
,,,"FYGVF‐NH2 [compound 166, self-assembling peptide FYGVF‐NH2]",7.0,0.5,~25 nm,
,,,"FFFVF‐NH2 [compound 322, self-assembling peptide FFFVF‐NH2]",7.0,1.0,approximately 14 nm,"21,393 Pa"
5.0,1.0,,NC(=O)[C@H](Cc1ccccc1)NC(=O)[C@H](CC(=O)O)NC(=O)CNC(=O)[C@H](CCC(=O)O)NC(=O)[C@H](Cc1ccccc1)NC(=O)[C@H](CCC(=O)O)NC(=O)[C@@H](N)Cc1c[nH]c2ccccc12 [compound 16] (H-WEFEGDF-NH2; N-terminus assumed),,,9–10 nm,1254 Pa
3.0,1.0,opaque hydrogel,"EYVRFF [compound 368, self-assembling peptide EYVRFF]",,,,

Compound,pH (of hydrogelation) ([1]; buffer 1X PBS),Conc. (hydrogelation concentration) ([1]; buffer 1X PBS) [wt%],"gelation outcome / gel appearance ([1]; in water, pH adjusted (2–12))",pH (of hydrogelation) ([1]; in water),Conc. (hydrogelation concentration) ([1]; in water) [wt%],nanofiber width [2],storage modulus (G′) at equilibrium [3]
"VKVKAFIDDK [compound 560, self-assembling peptide […]]",8.0,1.0,,,,,
